According to ChEMBL document CHEMBL3091364, “Benzyloxybenzylammonium chlorides: Simple amine salts that display anticonvulsant activity” (Bioorg Med Chem, 2013):

How the values were obtained:
[1] = target: T1, 5-hydroxytryptamine receptor 2C (Homo sapiens) (UniProt P28335); test: Inhibition of 5-HT2C receptor (unknown origin) at 10 uM relative to control
T1 sequence (whole entry): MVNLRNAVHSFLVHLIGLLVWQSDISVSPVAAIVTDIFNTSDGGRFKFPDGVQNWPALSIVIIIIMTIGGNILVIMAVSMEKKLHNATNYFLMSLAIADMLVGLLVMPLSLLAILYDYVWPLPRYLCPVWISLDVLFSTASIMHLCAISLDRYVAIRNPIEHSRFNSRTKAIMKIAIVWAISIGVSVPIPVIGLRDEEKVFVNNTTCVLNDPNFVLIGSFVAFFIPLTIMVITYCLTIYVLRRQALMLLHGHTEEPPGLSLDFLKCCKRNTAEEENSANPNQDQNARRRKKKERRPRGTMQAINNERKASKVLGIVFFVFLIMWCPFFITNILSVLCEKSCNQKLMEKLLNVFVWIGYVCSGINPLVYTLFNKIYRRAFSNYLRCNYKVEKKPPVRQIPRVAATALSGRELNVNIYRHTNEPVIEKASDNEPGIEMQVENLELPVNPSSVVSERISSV

[2] = target: Beta-3 adrenergic receptor (Homo sapiens) (UniProt P13945); test: Inhibition of adrenergic beta-3 receptor (unknown origin) at 10 uM relative to control
[3] = target: T2, Alpha-2A adrenergic receptor (Homo sapiens) (UniProt P08913); test: Inhibition of adrenergic alpha-2A receptor (unknown origin) at 10 uM relative to control
T2 sequence (whole entry): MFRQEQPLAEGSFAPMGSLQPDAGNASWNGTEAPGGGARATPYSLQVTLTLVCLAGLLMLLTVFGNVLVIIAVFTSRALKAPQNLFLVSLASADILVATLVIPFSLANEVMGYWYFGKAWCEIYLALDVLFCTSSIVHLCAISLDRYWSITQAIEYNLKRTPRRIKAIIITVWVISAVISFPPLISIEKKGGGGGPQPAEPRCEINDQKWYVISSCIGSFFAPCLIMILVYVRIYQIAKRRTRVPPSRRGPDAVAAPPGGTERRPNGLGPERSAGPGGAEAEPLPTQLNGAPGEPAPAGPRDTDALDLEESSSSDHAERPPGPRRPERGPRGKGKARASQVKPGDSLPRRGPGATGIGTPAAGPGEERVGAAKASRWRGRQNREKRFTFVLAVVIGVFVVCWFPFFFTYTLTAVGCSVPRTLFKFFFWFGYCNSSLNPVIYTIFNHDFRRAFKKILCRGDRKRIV

[4] = target: T3, D(4) dopamine receptor (Homo sapiens) (UniProt P21917); test: Inhibition of dopaminergic D4 receptor (unknown origin) at 10 uM relative to control
T3 sequence (whole entry): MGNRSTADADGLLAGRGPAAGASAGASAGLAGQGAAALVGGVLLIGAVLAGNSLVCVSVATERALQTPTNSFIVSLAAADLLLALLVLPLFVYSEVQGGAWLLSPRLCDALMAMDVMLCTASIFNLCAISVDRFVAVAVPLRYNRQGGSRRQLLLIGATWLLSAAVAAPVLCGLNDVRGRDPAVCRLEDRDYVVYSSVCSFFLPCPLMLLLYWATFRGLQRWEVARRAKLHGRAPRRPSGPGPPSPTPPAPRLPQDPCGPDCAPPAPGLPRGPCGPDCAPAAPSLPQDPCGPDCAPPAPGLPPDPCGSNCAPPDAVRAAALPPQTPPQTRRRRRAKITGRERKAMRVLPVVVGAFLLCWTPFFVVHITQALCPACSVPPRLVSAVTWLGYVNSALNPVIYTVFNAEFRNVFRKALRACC

[5] = target: T4, Muscarinic acetylcholine receptor M1 (Homo sapiens) (UniProt P11229); test: Inhibition of muscarinergic M1 receptor (unknown origin) at 10 uM relative to control
T4 sequence (whole entry): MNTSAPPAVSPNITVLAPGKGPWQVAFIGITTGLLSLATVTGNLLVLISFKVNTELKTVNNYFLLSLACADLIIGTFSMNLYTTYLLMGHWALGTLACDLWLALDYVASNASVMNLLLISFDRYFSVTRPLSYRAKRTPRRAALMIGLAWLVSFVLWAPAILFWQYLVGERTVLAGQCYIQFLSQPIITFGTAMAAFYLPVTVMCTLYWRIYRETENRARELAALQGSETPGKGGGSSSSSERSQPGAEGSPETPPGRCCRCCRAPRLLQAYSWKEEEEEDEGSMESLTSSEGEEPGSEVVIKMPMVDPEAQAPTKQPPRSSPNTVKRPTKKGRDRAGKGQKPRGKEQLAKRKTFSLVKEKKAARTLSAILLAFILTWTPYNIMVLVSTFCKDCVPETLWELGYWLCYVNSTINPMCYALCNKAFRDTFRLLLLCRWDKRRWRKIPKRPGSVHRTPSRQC

[6] = target: D(3) dopamine receptor (Homo sapiens) (UniProt P35462); test: Inhibition of dopaminergic D3 receptor (unknown origin) at 10 uM relative to control
[7] = target: Sodium-dependent noradrenaline transporter (Homo sapiens) (UniProt P23975); test: Inhibition of NET (unknown origin) at 10 uM relative to control
[8] = target: T5, Alpha-1B adrenergic receptor (Homo sapiens) (UniProt P35368); test: Inhibition of adrenergic alpha-1B receptor (unknown origin) at 10 uM relative to control
T5 sequence (whole entry): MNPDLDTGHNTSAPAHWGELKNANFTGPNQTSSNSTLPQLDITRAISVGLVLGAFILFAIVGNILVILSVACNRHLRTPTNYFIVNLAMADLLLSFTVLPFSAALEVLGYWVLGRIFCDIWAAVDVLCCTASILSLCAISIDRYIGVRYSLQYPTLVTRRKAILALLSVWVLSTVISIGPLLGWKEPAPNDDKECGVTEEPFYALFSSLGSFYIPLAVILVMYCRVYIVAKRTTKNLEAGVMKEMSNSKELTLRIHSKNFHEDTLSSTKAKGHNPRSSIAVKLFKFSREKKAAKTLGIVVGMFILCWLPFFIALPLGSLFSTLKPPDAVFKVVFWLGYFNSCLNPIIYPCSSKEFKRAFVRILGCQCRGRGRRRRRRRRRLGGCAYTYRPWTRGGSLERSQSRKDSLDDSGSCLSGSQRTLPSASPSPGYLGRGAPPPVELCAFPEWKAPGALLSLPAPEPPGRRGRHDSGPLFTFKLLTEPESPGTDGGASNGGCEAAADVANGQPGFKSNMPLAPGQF

Sequence of Sodium-dependent noradrenaline transporter (Homo sapiens) (P23975 whole entry): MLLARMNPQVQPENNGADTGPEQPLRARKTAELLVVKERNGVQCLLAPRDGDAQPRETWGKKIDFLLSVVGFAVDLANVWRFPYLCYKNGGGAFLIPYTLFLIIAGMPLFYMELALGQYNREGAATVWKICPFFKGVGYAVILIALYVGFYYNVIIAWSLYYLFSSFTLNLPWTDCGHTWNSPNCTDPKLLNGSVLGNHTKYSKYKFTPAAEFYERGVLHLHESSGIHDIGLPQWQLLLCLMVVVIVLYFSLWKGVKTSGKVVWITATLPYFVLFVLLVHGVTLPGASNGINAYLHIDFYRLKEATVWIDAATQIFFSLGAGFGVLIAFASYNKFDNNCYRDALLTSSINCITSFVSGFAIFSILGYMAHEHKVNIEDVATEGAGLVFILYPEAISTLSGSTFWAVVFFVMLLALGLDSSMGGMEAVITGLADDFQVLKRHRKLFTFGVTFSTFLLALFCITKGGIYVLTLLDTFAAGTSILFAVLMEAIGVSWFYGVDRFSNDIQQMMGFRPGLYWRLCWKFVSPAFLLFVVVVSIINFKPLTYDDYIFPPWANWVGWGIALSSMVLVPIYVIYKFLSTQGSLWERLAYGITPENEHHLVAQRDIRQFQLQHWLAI
Sequence of D(3) dopamine receptor (Homo sapiens) (P35462 whole entry): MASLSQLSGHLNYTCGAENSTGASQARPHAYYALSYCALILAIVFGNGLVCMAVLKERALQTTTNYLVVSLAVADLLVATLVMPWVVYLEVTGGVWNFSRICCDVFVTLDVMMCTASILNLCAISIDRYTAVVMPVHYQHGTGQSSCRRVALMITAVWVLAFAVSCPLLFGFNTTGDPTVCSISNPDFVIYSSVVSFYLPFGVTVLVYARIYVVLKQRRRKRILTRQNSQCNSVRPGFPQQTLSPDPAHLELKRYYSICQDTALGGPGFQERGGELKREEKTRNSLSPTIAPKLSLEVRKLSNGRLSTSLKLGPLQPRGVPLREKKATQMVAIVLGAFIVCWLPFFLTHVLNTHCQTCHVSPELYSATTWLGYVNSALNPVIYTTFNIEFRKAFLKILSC
Sequence of Beta-3 adrenergic receptor (Homo sapiens) (P13945 whole entry, looked up): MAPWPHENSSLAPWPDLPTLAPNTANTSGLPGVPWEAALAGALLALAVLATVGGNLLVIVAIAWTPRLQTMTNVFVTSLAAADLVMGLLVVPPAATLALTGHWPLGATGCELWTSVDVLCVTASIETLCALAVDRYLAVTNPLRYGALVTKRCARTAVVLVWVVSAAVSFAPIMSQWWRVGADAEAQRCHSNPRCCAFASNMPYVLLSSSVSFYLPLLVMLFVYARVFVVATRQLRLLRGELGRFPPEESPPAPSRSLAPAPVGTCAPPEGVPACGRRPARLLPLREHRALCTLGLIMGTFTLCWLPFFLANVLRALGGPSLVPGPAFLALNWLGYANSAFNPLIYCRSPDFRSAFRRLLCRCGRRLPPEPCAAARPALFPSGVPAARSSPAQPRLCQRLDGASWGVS

Structure (SMILES) | inhibition [1] [%] | inhibition [2] [%] | inhibition [3] [%] | inhibition [4] [%] | inhibition [5] [%] | inhibition [6] [%] | inhibition [7] [%] | inhibition [8] [%]
Cl.NCc1ccc(OCc2ccc(Cl)cc2)cc1 | 13.2 | -3.4 | 65.9 | 24.7 | 18.8 | 22.6 | 64.7 | –
Cl.NCc1ccc(OCc2ccccc2F)cc1 | 32.6 | 10.2 | 39 | 44 | 42 | 24.1 | 61.3 | 13.6
Cl.NCc1ccc(OCc2ccccc2)cc1 | 38.2 | 11.3 | 47.3 | 27.4 | 28.9 | 14.3 | 63.6 | 0.5
Cl.NCc1ccc(OCc2cccc(F)c2)cc1 | 41.2 | 9.3 | 57.2 | 9.9 | 37.5 | 14 | 76.1 | 24.8
Cl.NCc1ccc(OCc2ccc(OC(F)(F)F)cc2)cc1 | 4.2 | 17.5 | 48.2 | -0.2 | 26.6 | 13.3 | 60.1 | 4.1
Cl.NCc1ccc(OCc2cccc(Cl)c2)cc1 | -4.3 | 16.9 | 74 | 79.4 | 17.6 | 38.1 | 83.9 | 11.4
Cl.NCc1ccc(OCc2cccc(OC(F)(F)F)c2)cc1 | 33 | 13.6 | 47 | 22.1 | – | 33.5 | 58.5 | -3.8
Cl.NCc1ccc(OCc2ccccc2OC(F)(F)F)cc1 | 39.7 | 26.8 | 59.2 | 94.6 | 67.3 | 33.9 | 29.3 | -2.4
Cl.NCc1ccc(OCc2ccc(F)cc2)cc1 | 11.1 | 5 | 55.4 | 19.5 | 18.6 | 16.7 | 59.9 | –
